Laboratory results: US6040309A, “Benzothiophene derivatives useful in therapy” (Pfizer, Inc., priority 1997, dated 2000)
Bridges are numbered along the chain shown (N, C = ends). Where no end group is shown, it is not given here.

Experiments:
[1] = molecular target: T1, ETA receptor (Rattus norvegicus, UniProt P26684); assay: In Vitro Vascular Smooth Muscle Activity, Rat Aorta (ET-1 contraction; Test B); type: cell-based; conditions: read-out: pA2 (converted)
T1 construct: Rat aortae are cleaned of connective tissue and fat and cut into helical strips; from tissue; host or cells: rat aorta, helical strips, endothelium removed
T1 sequence (P26684 21-426): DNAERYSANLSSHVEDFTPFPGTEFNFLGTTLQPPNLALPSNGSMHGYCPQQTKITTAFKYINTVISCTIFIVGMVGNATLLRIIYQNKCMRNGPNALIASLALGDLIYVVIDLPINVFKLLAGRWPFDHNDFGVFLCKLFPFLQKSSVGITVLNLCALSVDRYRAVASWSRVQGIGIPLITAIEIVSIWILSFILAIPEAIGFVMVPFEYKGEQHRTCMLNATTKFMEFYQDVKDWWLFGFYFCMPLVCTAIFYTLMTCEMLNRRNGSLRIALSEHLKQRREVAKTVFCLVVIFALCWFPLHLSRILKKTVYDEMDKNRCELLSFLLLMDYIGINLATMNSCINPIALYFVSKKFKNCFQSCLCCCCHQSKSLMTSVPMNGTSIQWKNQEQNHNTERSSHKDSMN
Excerpt: B. In Vitro Vascular Smooth Muscle Activity
Rat aortae are cleaned of connective tissue and fat and cut into helical strips approx 4 mm in width. The endothelium is removed by dragging the luminal surface of the tissue gently across filter paper moistened with Krebs solution of composition (mM) NaCl 130, KCl 5.6, NaHCO3 25, Glucose 11.1, NaH2 PO4 0.6, CaCl2 2.16, MgCl2 0.5, gassed with 95% O2 /5% CO2. The strips are mounted in isolated organ baths in Krebs solution under a resting tension of 1 gram. Organ bath solutions are maintained at 37° C. and continuously aerated with 95% O2 /5% CO2. […] After equilibration in the organ bath for 1 hour, tissues are contracted by the addition of KCl to a final concentration of 60 mM. The KCl is removed by replacing the Krebs solution, with two further washes with Krebs solution. To determine the potency of an ETA receptor antagonist, two tissues are cumulatively dosed with ET-1 (0.1 nM-1 μM); other tissues are dosed with ET-1 (0.1 nM-1 μM) in duplicate, beginning 30 minutes after the inclusion in the organ bath medium of the test compound. Sufficient tissues are used per experiment to generate dose-response curves to ET-1 in the absence and the presence of at least 3 concentrations of antagonist. Data are expressed as the mean±s.e.m. Dissociation constants (kb) of competitive antagonists are calculated by the method of Arunlakshana and Schild.

[2] = molecular target: rabbit ETA receptor; conditions: cited from earlier work
[3] = molecular target: human ETA receptor; conditions: cited from earlier work
[4] = tested on: neointimal formation; conditions: cited from earlier work

| Kb [1] [µM] | Compound | IC50 [2] [µM] | further results |
| --- | --- | --- | --- |
| 0.229 | O=C(O)c1sc2cc(Cn3ccnc3)ccc2c1Sc1ccccc1O [Example 71] |  |  |
|  | CC(C)Oc1c(C(=O)O)sc2ccc(OCc3ccccc3)cc12 [5-benzyloxy-3-isopropoxybenzo[b]thiophene-2-carboxylic acid] | 6 | IC50 [3]: 8.8 µM |
|  | CCCOc1ccc2c(c1)[C@@H](c1ccc(OC)cc1OCC(=O)O)[C@H](C(=O)O)[C@H]2c1ccc2c(c1)OCO2 [SB-209670] |  | reduction in neointimal formation ([4]; relative to control animals): 50% |
|  | ET-1: isoform of endothelin, 21-amino acid peptide, potent vasoconstrictor (CSCSSLMDKECVYFCHLDIIW; disulfide 1-15, 3-11; ends not checked; UniProt P05305 53-73, looked up) |  | effect on neointimal formation ([4]; in rats after balloon angioplasty): potentiate neointimal formation |
| 0.0148 | O=C(O)c1sc2cc(OCc3cccnc3)ccc2c1Sc1ccccc1O [Example 56] |  |  |
|  | COc1cccc(Sc2c(C(=O)O)sc3ccccc23)c1 [3-[(3-methoxyphenyl)sulfanyl]benzo[b]thiophene-2-carboxylic acid] | 5.9 |  |
